Measured values: ChEMBL document CHEMBL1156441, “Mechanism of inactivation of plasminogen activator inhibitor-1 by a small molecule inhibitor” (J Biol Chem, 2007)

Key:
Parameters in all cases: scale not given: the % may be the effect or the level left
Homo sapiens [1] = species on record: Homo sapiens; experiment: Inhibition of human non-glycosylated PAI1 R118A mutant using urokinase type plasminogen activator substrate assessed as change in IC50 value relative to wild type by direct chromogenic assay
Homo sapiens [2] = species on record: Homo sapiens; experiment: Inhibition of human non-glycosylated PAI1 T94A mutant using urokinase type plasminogen activator substrate assessed as change in IC50 value relative to wild type by direct chromogenic assay
Homo sapiens [3] = species on record: Homo sapiens; experiment: Inhibition of human non-glycosylated PAI1 D95A mutant using urokinase type plasminogen activator substrate assessed as change in IC50 value relative to wild type by direct chromogenic assay
Homo sapiens [4] = species on record: Homo sapiens; experiment: Inhibition of human non-glycosylated PAI1 Y79A mutant using urokinase type plasminogen activator substrate assessed as change in IC50 value relative to wild type by direct chromogenic assay
Homo sapiens [5] = species on record: Homo sapiens; experiment: Inhibition of human non-glycosylated PAI1 F114A mutant using urokinase type plasminogen activator substrate assessed as change in IC50 value relative to wild type by direct chromogenic assay
Homo sapiens [6] = species on record: Homo sapiens; experiment: Inhibition of human non-glycosylated PAI1 T93A mutant using urokinase type plasminogen activator substrate assessed as change in IC50 value relative to wild type by direct chromogenic assay
Homo sapiens [7] = species on record: Homo sapiens; experiment: Inhibition of human non-glycosylated PAI1 K122A mutant using urokinase type plasminogen activator substrate assessed as change in IC50 value relative to wild type by direct chromogenic assay
Homo sapiens [8] = species on record: Homo sapiens; experiment: Inhibition of human non-glycosylated PAI1 R76A mutant using urokinase type plasminogen activator substrate assessed as change in IC50 value relative to wild type by direct chromogenic assay
Homo sapiens [9] = species on record: Homo sapiens; experiment: Inhibition of human non-glycosylated PAI1 H143A mutant using urokinase type plasminogen activator substrate assessed as change in IC50 value relative to wild type by direct chromogenic assay
Homo sapiens [10] = species on record: Homo sapiens; experiment: Inhibition of human non-glycosylated PAI1 K80A mutant using urokinase type plasminogen activator substrate assessed as change in IC50 value relative to wild type by direct chromogenic assay
Homo sapiens [11] = species on record: Homo sapiens; experiment: Inhibition of human non-glycosylated PAI1 T120A mutant using urokinase type plasminogen activator substrate assessed as change in IC50 value relative to wild type by direct chromogenic assay

Q: With `O=C(O)C(=O)c1cn(Cc2ccccc2)c2ccc(-c3ccc(OC(F)(F)F)cc3)cc12` as the compound, how does the Activity (Homo sapiens [1]) read?
A: The Activity was 7%.

Q: And the Activity (Homo sapiens [2])?
A: Its Activity is 54%.

Q: What about the Activity (Homo sapiens [3]) of the same compound?
A: The Activity was 58%.

Q: And the Activity (Homo sapiens [4])?
A: Its Activity is 28%.

Q: And the Activity (Homo sapiens [5])?
A: The Activity was 3%.

Q: What about the Activity (Homo sapiens [6]) of the same compound?
A: Its Activity is 27%.

Q: And the Activity (Homo sapiens [7])?
A: The Activity was -25%.

Q: And the Activity (Homo sapiens [8])?
A: The Activity was 48%.

Q: What about the Activity (Homo sapiens [9]) of the same compound?
A: The Activity was -14%.

Q: What about the Activity (Homo sapiens [10]) of the same compound?
A: Its Activity is 14%.

Q: What about the Activity (Homo sapiens [11]) of the same compound?
A: Its Activity is -21%.
